Measured values published in BindingDB's records for doi:10.1016/s0960-894x(02)00300-1 (University of Illinois At Chicago, 2002).

Molecular target: T1, Dimer of Gag-Pol polyprotein [501-599,Q508K,L534I,L564I,C568A,C596A] (Human immunodeficiency virus 1, UniProt P03367, C568A/C596A/L534I/L564I/Q508K)
T1 construct: 501-599
Experiment: Protease Inhibition Assay
Conditions: pH 6.4; 25 °C
Method: The Ki values were determined using fluorogenic substrate, 2-(aminobenzoyl)-Thr-Ile-Nle-Phe(p-NO2)-Gln-ArgNH2. A standard curve relating changes in fluorescent intensity to changes in concentration of product was used to convert fluorescent changes into molar velocities. The amount of cleavage was determined by HPLC.

Row | Compound | Ki
1 | C=CCCCCCCC(OC(=O)N(CCCCC=C)C[C@@H](O)[C@H](Cc1ccccc1)NC(=O)O[C@H]1CO[C@H]2OCC[C@H]21)c1ccccc1 (stereo partly drawn) [(3R,3aS,6aR)-hexahydrofuro[2,3-b]furan-3-yl N-[(2S,3R)-4-[hex-5-en-1-yl({[(1-phenylnon-8-en-1-yl)oxy]carbonyl})amino]-3-hydroxy-1-phenylbutan-2-yl]carbamate] | 0.444 µM
2 | O=C(N[C@@H](Cc1ccccc1)[C@H](O)CN1CCCCCCCCCCC(c2ccccc2)OC1=O)O[C@H]1CO[C@H]2OCC[C@H]21 (stereo partly drawn) [(3R,3aS,6aR)-hexahydrofuro[2,3-b]furan-3-yl N-[(2S,3R)-3-hydroxy-4-(2-oxo-14-phenyl-1-oxa-3-azacyclotetradecan-3-yl)-1-phenylbutan-2-yl]carbamate] | 0.189 µM
3 | CC1CCCCCCCCCCCOC(=O)N1C[C@@H](O)[C@H](Cc1ccccc1)NC(=O)O[C@H]1CO[C@H]2OCC[C@H]21 (stereo partly drawn) [(3R,3aS,6aR)-hexahydrofuro[2,3-b]furan-3-yl N-[(2S,3R)-3-hydroxy-4-(4-methyl-2-oxo-1-oxa-3-azacyclopentadecan-3-yl)-1-phenylbutan-2-yl]carbamate] | 0.03 µM
4 | CC1CCCCCCCCCCOC(=O)N(C[C@@H](O)[C@H](Cc2ccccc2)NC(=O)O[C@H]2CO[C@H]3OCC[C@H]32)C1 (stereo partly drawn) [(3R,3aS,6aR)-hexahydrofuro[2,3-b]furan-3-yl N-[(2S,3R)-3-hydroxy-4-(5-methyl-2-oxo-1-oxa-3-azacyclopentadecan-3-yl)-1-phenylbutan-2-yl]carbamate] | 0.0061 µM
5 | O=C(N[C@@H](Cc1ccccc1)[C@H](O)CN1CCCCCCCCC=CCCOC1=O)O[C@H]1CO[C@H]2OCC[C@H]21 [(3R,3aS,6aR)-hexahydrofuro[2,3-b]furan-3-yl N-[(2S,3R)-3-hydroxy-4-(2-oxo-1-oxa-3-azacyclopentadec-12-en-3-yl)-1-phenylbutan-2-yl]carbamate] | 0.088 µM
6 | O=C(N[C@@H](Cc1ccccc1)[C@H](O)CN1CCCCCCCCCCCOC1=O)O[C@H]1CO[C@H]2OCC[C@H]21 [(3R,3aS,6aR)-hexahydrofuro[2,3-b]furan-3-yl N-[(2S,3R)-3-hydroxy-4-(2-oxo-1-oxa-3-azacyclotetradecan-3-yl)-1-phenylbutan-2-yl]carbamate] | 0.08 µM
7 | O=C(N[C@@H](Cc1ccccc1)[C@H](O)CN1CCCCCCCCC=CCC(c2ccccc2)OC1=O)O[C@H]1CO[C@H]2OCC[C@H]21 (stereo partly drawn) [(3R,3aS,6aR)-hexahydrofuro[2,3-b]furan-3-yl N-[(2S,3R)-3-hydroxy-4-(2-oxo-15-phenyl-1-oxa-3-azacyclopentadec-12-en-3-yl)-1-phenylbutan-2-yl]carbamate] | 0.167 µM
8 | O=C(N[C@@H](Cc1ccccc1)[C@H](O)CN1CCCCCCCCCCCCC(c2ccccc2)OC1=O)O[C@H]1CO[C@H]2OCC[C@H]21 (stereo partly drawn) [(3R,3aS,6aR)-hexahydrofuro[2,3-b]furan-3-yl N-[(2S,3R)-3-hydroxy-4-(2-oxo-16-phenyl-1-oxa-3-azacyclohexadecan-3-yl)-1-phenylbutan-2-yl]carbamate] | 0.268 µM
9 | O=C(N[C@@H](Cc1ccccc1)[C@H](O)CN1CCCCCCCCCCCC(c2ccccc2)OC1=O)O[C@H]1CO[C@H]2OCC[C@H]21 (stereo partly drawn) [(3R,3aS,6aR)-hexahydrofuro[2,3-b]furan-3-yl N-[(2S,3R)-3-hydroxy-4-(2-oxo-15-phenyl-1-oxa-3-azacyclopentadecan-3-yl)-1-phenylbutan-2-yl]carbamate] | 0.357 µM
10 | O=C(N[C@@H](Cc1ccccc1)[C@H](O)CN1C/C=C\CCCCCCCCOC1=O)O[C@H]1CO[C@H]2OCC[C@H]21 [(3R,3aS,6aR)-hexahydrofuro[2,3-b]furan-3-yl N-[(2S,3R)-3-hydroxy-4-[(5Z)-2-oxo-1-oxa-3-azacyclotetradec-5-en-3-yl]-1-phenylbutan-2-yl]carbamate] | 0.125 µM
11 | C=CCCCCCCCCN(C[C@@H](O)[C@H](Cc1ccccc1)NC(=O)O[C@H]1CO[C@H]2OCC[C@H]21)C(=O)OC(CC=C)c1ccccc1 (stereo partly drawn) [(3R,3aS,6aR)-hexahydrofuro[2,3-b]furan-3-yl N-[(2S,3R)-4-[dec-9-en-1-yl({[(1-phenylbut-3-en-1-yl)oxy]carbonyl})amino]-3-hydroxy-1-phenylbutan-2-yl]carbamate] | > 1 µM
12 | C=CCCCCCCCCOC(=O)N(C[C@@H](O)[C@H](Cc1ccccc1)NC(=O)O[C@H]1CO[C@H]2OCC[C@H]21)C(C)CC=C (stereo partly drawn) [dec-9-en-1-yl N-[(2R,3S)-3-({[(3R,3aS,6aR)-hexahydrofuro[2,3-b]furan-3-yloxy]carbonyl}amino)-2-hydroxy-4-phenylbutyl]-N-(pent-4-en-2-yl)carbamate] | > 1 µM
13 | O=C(N[C@@H](Cc1ccccc1)[C@H](O)CN1CCCCC=CCCCCCCC(c2ccccc2)OC1=O)O[C@H]1CO[C@H]2OCC[C@H]21 (stereo partly drawn) [(3R,3aS,6aR)-hexahydrofuro[2,3-b]furan-3-yl N-[(2S,3R)-3-hydroxy-4-(2-oxo-16-phenyl-1-oxa-3-azacyclohexadec-8-en-3-yl)-1-phenylbutan-2-yl]carbamate] | 0.162 µM
14 | C=CCCCCCCCCOC(=O)N(CC=C)C[C@@H](O)[C@H](Cc1ccccc1)NC(=O)O[C@H]1CO[C@H]2OCC[C@H]21 [dec-9-en-1-yl N-[(2R,3S)-3-({[(3R,3aS,6aR)-hexahydrofuro[2,3-b]furan-3-yloxy]carbonyl}amino)-2-hydroxy-4-phenylbutyl]-N-(prop-2-en-1-yl)carbamate] | > 1 µM
15 | C=CCCCCCCCC(OC(=O)N(CC=C)C[C@@H](O)[C@H](Cc1ccccc1)NC(=O)O[C@H]1CO[C@H]2OCC[C@H]21)c1ccccc1 (stereo partly drawn) [(3R,3aS,6aR)-hexahydrofuro[2,3-b]furan-3-yl N-[(2S,3R)-3-hydroxy-1-phenyl-4-({[(1-phenyldec-9-en-1-yl)oxy]carbonyl}(prop-2-en-1-yl)amino)butan-2-yl]carbamate] | > 1 µM
16 | O=C(N[C@@H](Cc1ccccc1)[C@H](O)CN1C/C=C\CCCCCCCC(c2ccccc2)OC1=O)O[C@H]1CO[C@H]2OCC[C@H]21 (stereo partly drawn) [(3R,3aS,6aR)-hexahydrofuro[2,3-b]furan-3-yl N-[(2S,3R)-3-hydroxy-4-[(5Z)-2-oxo-14-phenyl-1-oxa-3-azacyclotetradec-5-en-3-yl]-1-phenylbutan-2-yl]carbamate] | 0.229 µM
17 | CC1CC=CCCCCCCCOC(=O)N(C[C@@H](O)[C@H](Cc2ccccc2)NC(=O)O[C@H]2CO[C@H]3OCC[C@H]32)C1 (stereo partly drawn) [(3R,3aS,6aR)-hexahydrofuro[2,3-b]furan-3-yl N-[(2S,3R)-3-hydroxy-4-(5-methyl-2-oxo-1-oxa-3-azacyclopentadec-7-en-3-yl)-1-phenylbutan-2-yl]carbamate] | 0.011 µM
18 | C=CCCCCCCCOC(=O)N(CC(C)CC=C)C[C@@H](O)[C@H](Cc1ccccc1)NC(=O)O[C@H]1CO[C@H]2OCC[C@H]21 (stereo partly drawn) [non-8-en-1-yl N-[(2R,3S)-3-({[(3R,3aS,6aR)-hexahydrofuro[2,3-b]furan-3-yloxy]carbonyl}amino)-2-hydroxy-4-phenylbutyl]-N-(2-methylpent-4-en-1-yl)carbamate] | > 1 µM
19 | O=C(N[C@@H](Cc1ccccc1)[C@H](O)CN1CCCCCCCCCCCCOC1=O)O[C@H]1CO[C@H]2OCC[C@H]21 [(3R,3aS,6aR)-hexahydrofuro[2,3-b]furan-3-yl N-[(2S,3R)-3-hydroxy-4-(2-oxo-1-oxa-3-azacyclopentadecan-3-yl)-1-phenylbutan-2-yl]carbamate] | 0.014 µM
20 | C=CCCCCCCCCN(C[C@@H](O)[C@H](Cc1ccccc1)NC(=O)O[C@H]1CO[C@H]2OCC[C@H]21)C(=O)OCCC=C [but-3-en-1-yl N-[(2R,3S)-3-({[(3R,3aS,6aR)-hexahydrofuro[2,3-b]furan-3-yloxy]carbonyl}amino)-2-hydroxy-4-phenylbutyl]-N-(dec-9-en-1-yl)carbamate] | > 1 µM
21 | CC1CC=CCCCCCCCCOC(=O)N1C[C@@H](O)[C@H](Cc1ccccc1)NC(=O)O[C@H]1CO[C@H]2OCC[C@H]21 (stereo partly drawn) [(3R,3aS,6aR)-hexahydrofuro[2,3-b]furan-3-yl N-[(2S,3R)-3-hydroxy-4-(4-methyl-2-oxo-1-oxa-3-azacyclopentadec-6-en-3-yl)-1-phenylbutan-2-yl]carbamate] | 0.053 µM
22 | CC(C)(C)NC(=O)[C@@H]1C[C@@H]2CCCC[C@@H]2CN1C[C@@H](O)[C@H](Cc1ccccc1)NC(=O)O[C@H]1CO[C@H]2OCC[C@H]21 [(3R,3aS,6aR)-hexahydrofuro[2,3-b]furan-3-yl N-[(2S,3R)-4-[(3S,4aS,8aS)-3-(tert-butylcarbamoyl)-decahydroisoquinolin-2-yl]-3-hydroxy-1-phenylbutan-2-yl]carbamate] | 0.002 µM
